# Measured values published in patent US7468281B2, “Hollow fiber membrane sample preparation devices” (priority 2001, dated 2008).
# Where “and” joins values, the source holds several entries; their conditions need not be identical. Equal values may be shown once. Read-outs that look alike come from different tables or passages of the source.
# Experiments:
# [1] = LPME of drugs from human plasma, urine and whole blood with vial format device, CZE analysis; assay type: physicochemical
# [2] = LPME of eight basic drugs from water with phosphate buffer acceptors of different pH, CE analysis; assay type: physicochemical
# [3] = LPME of seven basic drugs from water with different acidic acceptor phases, CE analysis; assay type: physicochemical
# [4] = LPME of seven basic drugs with different hollow fibres (polypropylene, polysulfone); assay type: physicochemical
# [5] = LPME with different supported liquid membrane liquids, 96 well format device, HPLC analysis; conditions: 0.1 M hydrochloric acid acceptor, 30 min
# From the text: A mixture of acidic and basic drugs was used in this study, together with 0.1 M hydrochloric acid or 0.1 M sodium hydroxide as the acceptor phase.
# Four different membrane forming small molecular weight organic liquids were investigated for selectivity differences, viz. hexyl ether, 4-nitrophenyl octyl ether, 1-octanol and 2-octyl-1-dodecanol. […] A cover plate of a 96 well block, carrying polypropylene fiber of 8 cm length, 600 μm inner diameter and 0.2 μm pore size, was dipped into each of these pure liquids for 5 seconds. These liquids were contained in different wells of a 96 well plate. The fibers in the cover plate were then washed by sonication in water for 15 seconds to remove excess material sticking to the fibers. A five component mixture of acidic and basic drugs was prepared from acetaminophen, naproxen, bamethane, quinidine and doxepin. Concentrations of the stock drug solutions were 1.0 mg/mL in each case. […] This is to maintain roughly the same level of analytical signal with each of these drugs. The mixture was diluted to 20 mL with water so that the concentrations of the three dilute drugs is in the range of 1 μg/mL, while those of the more concentrated drugs is in the range of 5 μg/mL. 500 μL of this diluted mixture of drugs is further diluted eight fold (to 4 mL) with water containing 250 μL of 2.0 M sodium hydroxide and used for extraction. […] The acceptor solution consisted of 25 μL of 0.1 M hydrochloric acid in each case. Extraction time with vibration was 30 min for each membrane liquid. The enriched acceptor solution was diluted three fold in each case and 25 μL of the resulting diluted solution used for analysis by high performance liquid chromatography on a Omnisphere C18 column using acetonitrile/pH 7.0 dipotassium hydrogen phosphate as mobile phase. A gradient from 5% acetonitrile to 40% was used to elute the strongly retained components in a reasonable time frame.
# [6] = human plasma, same fashion as tramadol example, running buffer 75 mM phosphate pH 3.0 + triethylamine + hydroxypropyl-β-cyclodextrin
# [7] = human plasma 0.5 mL, hexyl ether, 0.1 M hydrochloric acid (17 μL) acceptor, 45 minutes, tramadol example
# [8] = human urine 2.0 mL, hexyl ether, 0.01 M hydrochloric acid acceptor, 45 minutes
# [9] = 10 mM phosphate buffer acceptor pH 2.5, 60 minutes
# [10] = 10 mM phosphate buffer acceptor pH 3.5, 60 minutes
# [11] = 10 mM phosphate buffer acceptor pH 4.5, 60 minutes
# [12] = 10 mM phosphate buffer acceptor pH 5.5, 60 minutes
# [13] = 10 mM phosphate buffer acceptor pH 6.5, 60 minutes
# [14] = 10 mM phosphate buffer acceptor pH 7.5, 60 minutes
# [15] = acceptor phase 10 mM CH3COOH, measured pH 3.3, water sample, 100 ng/mL
# [16] = acceptor phase 10 mM H2S04, measured pH 2.1, water sample, 100 ng/mL
# [17] = acceptor phase 10 mM H3PO4, measured pH 2.5, water sample, 100 ng/mL
# [18] = acceptor phase 10 mM HCOOH, measured pH 3.1, water sample, 100 ng/mL
# [19] = acceptor phase 10 mM HCl, measured pH 2.1, water sample, 100 ng/mL
# [20] = acceptor phase 10 mM HNO3, measured pH 1.9, water sample, 100 ng/mL
# [21] = acceptor phase 10 mM acetate, measured pH 4.8, water sample, 100 ng/mL
# [22] = acceptor phase 10 mM phosphate, measured pH 3.3, water sample, 100 ng/mL
# [23] = acceptor phase 100 mM CH3COOH, measured pH 2.7, water sample, 100 ng/mL
# [24] = acceptor phase 100 mM H2S04, measured pH 1.3, water sample, 100 ng/mL
# [25] = acceptor phase 100 mM H3PO4, measured pH 1.8, water sample, 100 ng/mL
# [26] = acceptor phase 100 mM HCOOH, measured pH 2.3, water sample, 100 ng/mL
# [27] = acceptor phase 100 mM HCl, measured pH 1.2, water sample, 100 ng/mL
# [28] = acceptor phase 100 mM phosphate, measured pH 3.0, water sample, 100 ng/mL
# [29] = hollow fibre Polypropylene, 280 μm ID, hexyl ether, 0.01 M hydrochloric acid acceptor
# [30] = hollow fibre Polypropylene, 600 μm ID, hexyl ether, 0.01 M hydrochloric acid acceptor
# [31] = hollow fibre Polysulfone, 500 μm ID, hexyl ether, 0.01 M hydrochloric acid acceptor
# [32] = acceptor phase 100 mM HNO3, measured pH 1.1, water sample, 100 ng/mL
# [33] = supported liquid membrane 1-octanol
# [34] = supported liquid membrane 2-octyl-1-dodecanol
# [35] = supported liquid membrane 4-nitrophenyl octyl ether
# [36] = supported liquid membrane Hexyl Ether
# [37] = human plasma 250 μL, hexyl ether membrane, 0.01 M hydrochloric acid acceptor, 30 minutes
# [38] = human whole blood 250 μL, hexyl ether membrane, 0.01 M hydrochloric acid acceptor, 30 minutes
# [39] = human urine or plasma 2.5 mL, 1-octanol membrane, 0.1M hydrochloric acid acceptor, 45 minutes
compound,measurement,setting,value
"CN1CCN2c3ccccc3Cc3ccccc3C2C1 (stereo not drawn) [Mianserine, mianserine]",Enrichment,[1]; [6],15 fold
same,Extraction efficiency,[1]; [6],50%
"CNCCCC1(c2ccc(F)cc2)OCc2cc(C#N)ccc21 (stereo not drawn) [N-desmethyl metabolite, N-desmethylcitalopram]",Preconcentration,"[1]; patient plasma 1 mL, hexyl ether membrane, 20 mM phosphate buffer pH 2.75 acceptor, 45 minutes",30 fold
"COc1ccc2cc([C@H](C)C(=O)O)ccc2c1 [Naproxen, naproxen]",Enrichment,[1],82 fold
"COc1cccc(C2(O)CCCCC2CN(C)C)c1 (stereo not drawn) [Tramadol, tramadol]",Enrichment,[1]; [7],30 fold
same,Extraction efficiency,[1]; [7],100%
CC(N)Cc1ccccc1 (stereo not drawn) [amphetamine],Enrichment,[1]; [8],77
same,Extraction efficiency,[1]; [8],97%
same,Enrichment (average of 3 replicates),[2]; [9],107
same,Enrichment (average of 3 replicates),[2]; [10],102
same,Enrichment (average of 3 replicates),[2]; [11],104
same,Enrichment (average of 3 replicates),[2]; [12],93
same,Enrichment (average of 3 replicates),[2]; [13],88
same,Enrichment (average of 3 replicates),[2]; [14],64
same,Enrichment (average of 3 replicates),[3]; [15],66
same,Enrichment (average of 3 replicates),[3]; [16],104
same,Enrichment (average of 3 replicates),[3]; [17],72
same,Enrichment (average of 3 replicates),[3]; [18],72
same,Enrichment (average of 3 replicates),[3]; [19],82
same,Enrichment (average of 3 replicates),[3]; [20],48
same,Enrichment (average of 3 replicates),[3]; [21],90
same,Enrichment (average of 3 replicates),[3]; [22],123
same,Enrichment (average of 3 replicates),[3]; [23],48
same,Enrichment (average of 3 replicates),[3]; [24],98
same,Enrichment (average of 3 replicates),[3]; [25],58
same,Enrichment (average of 3 replicates),[3]; [26],5
same,Enrichment (average of 3 replicates),[3]; [27],74
same,Enrichment (average of 3 replicates),[3]; [28],128
same,Enrichment (average of 3 replicates),[4]; [29],104
same,Enrichment (average of 3 replicates),[4]; [30],82
same,Enrichment (average of 3 replicates),[4]; [31],22
CN1CCN(C(c2ccccc2)c2ccc(Cl)cc2)CC1 (stereo not drawn) [chlorcyclizine],Enrichment,"[1]; human plasma 2.0 mL, hexyl ether, 0.01 M hydrochloric acid acceptor, 45 minutes",52
same,Enrichment (average of 3 replicates),[2]; [9],123
same,Enrichment (average of 3 replicates),[2]; [10],32
same,Enrichment (average of 3 replicates),[2]; [11],5
same,Enrichment (average of 3 replicates),[3]; [15],32
same,Enrichment (average of 3 replicates),[3]; [16],122
same,Enrichment (average of 3 replicates),[3]; [17],118
same,Enrichment (average of 3 replicates),[3]; [18],72
same,Enrichment (average of 3 replicates),[3]; [19],126
same,Enrichment (average of 3 replicates),[3]; [20],120
same,Enrichment (average of 3 replicates),[3]; [21],3
same,Enrichment (average of 3 replicates),[3]; [22],83
same,Enrichment (average of 3 replicates),[3]; [23],66
same,Enrichment (average of 3 replicates),[3]; [24],136
same,Enrichment (average of 3 replicates),[3]; [25],80
same,Enrichment (average of 3 replicates),[3]; [26],93
same,Enrichment (average of 3 replicates),[3]; [27],138
same,Enrichment (average of 3 replicates),[3]; [32],136
same,Enrichment (average of 3 replicates),[3]; [28],93
same,Enrichment (average of 3 replicates),[4]; [29],106
same,Enrichment (average of 3 replicates),[4]; [30],126
same,Enrichment (average of 3 replicates),[4]; [31],110
CN1C(=O)CN=C(c2ccccc2)c2cc(Cl)ccc21 [diazepam],Enrichment (average of 3 replicates),[2]; pH 2.5,3
same,Enrichment (average of 3 replicates),[2]; pH 3.5,2
CN(C)CCC=C1c2ccccc2COc2ccccc21 [doxepin],Enrichment,[5]; [33],58
same,Enrichment,[5]; [34],147
same,Enrichment,[5]; [35],227
same,Enrichment,[5]; [36],202
O=C(CCCN1CCC(O)(c2ccc(Cl)cc2)CC1)c1ccc(F)cc1 [haloperidol],Enrichment (average of 3 replicates),[4],131
CCC(=O)C(CC(C)N(C)C)(c1ccccc1)c1ccccc1 (stereo not drawn) [methadone],Enrichment,[1]; [37],6.4
same,Enrichment,[1]; [38],5.4
same,Enrichment (average of 3 replicates),[3]; [15],86
same,Enrichment (average of 3 replicates),[3]; [16],157
same,Enrichment (average of 3 replicates),[3]; [17],96
same,Enrichment (average of 3 replicates),[3]; [18],114
same,Enrichment (average of 3 replicates),[3]; [19],138
same,Enrichment (average of 3 replicates),[3]; [20],141
same,Enrichment (average of 3 replicates),[3]; [21],42
same,Enrichment (average of 3 replicates),[3]; [22],134
same,Enrichment (average of 3 replicates),[3]; [23],84
same,Enrichment (average of 3 replicates),[3]; [24],150
same,Enrichment (average of 3 replicates),[3]; [25],77
same,Enrichment (average of 3 replicates),[3]; [26],91
same,Enrichment (average of 3 replicates),[3]; [27],134
same,Enrichment (average of 3 replicates),[3]; [32],107
same,Enrichment (average of 3 replicates),"[3]; acceptor phase 100 mM acetate, measured pH 4.8, water sample, 100 ng/mL",42
same,Enrichment (average of 3 replicates),[3]; [28],117
same,Enrichment (average of 3 replicates),[4]; [29],138
same,Enrichment (average of 3 replicates),[4]; [30],138
same,Enrichment (average of 3 replicates),[4]; [31],139
CN[C@@H](C)Cc1ccccc1 [methamphetamine],Enrichment,[1]; [37],8.1
same,Extraction efficiency,[1]; [37],81%
same,Enrichment,[1]; [39],75 fold
same,Extraction efficiency,[1]; [39],75%
same,Enrichment,"[1]; human whole blood 2.5 mL, 280 μm ID polypropylene fiber, hexyl ether, 17 μL 0.1 M hydrochloric acid acceptor, 30 minutes",one hundred
same,Enrichment,[1]; [38],7.8
same,Extraction efficiency,[1]; [38],78%
same,Enrichment (average of 3 replicates),[2]; [9],150
same,Enrichment (average of 3 replicates),[2]; [10],146
same,Enrichment (average of 3 replicates),[2]; [11],150
same,Enrichment (average of 3 replicates),[2]; [12],134
same,Enrichment (average of 3 replicates),[2]; [13],122
same,Enrichment (average of 3 replicates),[2]; [14],88
same,Enrichment (average of 3 replicates),[3]; [15],93
same,Enrichment (average of 3 replicates),[3]; [16],141
same,Enrichment (average of 3 replicates),[3]; [17],96
same,Enrichment (average of 3 replicates),[3]; [18],106
same,Enrichment (average of 3 replicates),[3]; [19],122
same,Enrichment (average of 3 replicates),[3]; [20],125
same,Enrichment (average of 3 replicates),[3]; [21],128
same,Enrichment (average of 3 replicates),[3]; [22],136
same,Enrichment (average of 3 replicates),[3]; [23],77
same,Enrichment (average of 3 replicates),[3]; [24],134
same,Enrichment (average of 3 replicates),[3]; [25],83
same,Enrichment (average of 3 replicates),[3]; [26],13
same,Enrichment (average of 3 replicates),[3]; [27],120
same,Enrichment (average of 3 replicates),[3]; [28],133
same,Enrichment (average of 3 replicates),[4]; [29],123
same,Enrichment (average of 3 replicates),[4]; [30],122
same,Enrichment (average of 3 replicates),[4]; [31],46
same,Enriched to the extent of,"[4]; polypropylene fiber, 600 μm inner diameter, hexyl ether, 0.01 M hydrochloric acid",82%
same,Recovered/enriched to the extent of,"[4]; polysulfone fiber, 500 μm inner diameter, hexyl ether, 0.01 M hydrochloric acid",22%
COc1ccc2c(c1OC)C(=O)O[C@@H]2[C@H]1c2c(cc3c(c2OC)OCO3)CCN1C [noscapin],Enrichment (average of 3 replicates),[2]; [9],8
same,Enrichment (average of 3 replicates),[2]; [10],2
CCOC(=O)C1(c2ccccc2)CCN(C)CC1 [pethidine],Enrichment,[1],74%/7.4 and 72%/7.2
same,Extraction efficiency,[1],74%/7.4 and 72%/7.2
same,Enrichment (average of 3 replicates),[2]; pH 2.5,160
same,Enrichment (average of 3 replicates),[2]; pH 3.5,147
same,Enrichment (average of 3 replicates),[2]; pH 4.5,131
same,Enrichment (average of 3 replicates),[2]; pH 5.5,90
same,Enrichment (average of 3 replicates),[2]; pH 6.5,34
same,Enrichment (average of 3 replicates),[2]; pH 7.5,6
same,Enrichment (average of 3 replicates),[3]; pH 1.1,64
same,Enrichment (average of 3 replicates),[3]; pH 1.2,139
same,Enrichment (average of 3 replicates),[3]; pH 1.3,141
same,Enrichment (average of 3 replicates),[3]; pH 1.8,90
same,Enrichment (average of 3 replicates),[3]; pH 1.9,106
same,Enrichment (average of 3 replicates),[3]; pH 2.1,128 and 144
same,Enrichment (average of 3 replicates),[3]; pH 2.3,106
same,Enrichment (average of 3 replicates),[3]; pH 2.5,98
same,Enrichment (average of 3 replicates),[3]; pH 2.7,90
same,Enrichment (average of 3 replicates),[3]; pH 3,131
same,Enrichment (average of 3 replicates),[3]; pH 3.1,115
same,Enrichment (average of 3 replicates),[3]; pH 3.3,96 and 139
same,Enrichment (average of 3 replicates),[3]; pH 4.8,106 and 91
same,Enrichment (average of 3 replicates),[4],125 and 128 and 122
CC(CN1c2ccccc2Sc2ccccc21)N(C)C (stereo not drawn) [promethazine],Enrichment,[1]; [37],5.5
same,Extraction efficiency,[1]; [37],55%
same,Enrichment,[1]; [38],4.3
same,Extraction efficiency,[1]; [38],43%
C=C[C@H]1C[N@@]2CC[C@H]1C[C@@H]2[C@@H](O)c1ccnc2ccc(OC)cc12 [quinidine],Enrichment,[5]; [33],100
same,Enrichment,[5]; [34],20
same,Enrichment,[5]; [35],52
same,Enrichment,[5]; [36],100
COC(=O)[C@H]1[C@H]2C[C@@H]3c4[nH]c5cc(OC)ccc5c4CCN3C[C@H]2C[C@@H](OC(=O)c2cc(OC)c(OC)c(OC)c2)[C@@H]1OC [reserpin],Enrichment (average of 3 replicates),[2]; [9],18
same,Enrichment (average of 3 replicates),[2]; [10],2
